# US20250099490A1, “25-HYDROXYVITAMIN D AS A FEED ADDITIVE FOR AQUATIC ANIMALS” (DSM IP Assets B.V., priority 2022, published 2025)
# “Also recorded” adds a separate entry of the source.
# How the values were obtained:
# Format in all cases: in vivo
# [1] = Study 1: rainbow trout 91-day feeding trial, growth performance (SGR) and feed conversion (FCR); conditions: rainbow trout, 80, 800 or 8000 μg/kg 25-OH-D3 in feed, 91 days
# Protocol: (§1) The first study evaluated dietary 25-hydroxyvitamin D3 (25-OH D3) compared to control basal diet fed fish. Fish with a mean starting weight of 58 g were fed diets based on the same standard composition representative of typical commercial salmonid feeds.
# (§2) Test diets contained no supplemented 25-OH-D3 or either 80, 800 or 8000 μg/kg supplemented 25-OH-D3 (as fed basis). Hy·D (25-OH-D3) was supplemented on top of diets already containing cholecalciferol (D3) from both endogenous and supplemented sources. The measured levels of D3 in all experimental diets were in excess of established minimum dietary requirements for D3, (National Research Council (NRC), Nutrient Requirements of Fish and Shrimp. 2011, Washington, DC: The National Academies Press. 392.). In addition, the dietary level of D3 in all experimental diets met recommendations for optimal vitamin D3 in salmonid diets (Fish Nutrition. Fourth Edition 2021. Edited by Ronald W. Hardy and Sadasivam J. Kaushik. Academic Press, UK. 905 pp.), which stipulates a vitamin D3 supplementation of 2500-3500 international units (IU)/62.5-87.5 μg/kg). Diets were fed for 91 days following which, test fish reached a mean final weight of 332 g. Forty fish were housed in each tank and each treatment consisted of four replicate tanks.
# [2] = Study 1: rainbow trout 91-day feeding trial, vitamin D3 metabolites in plasma and muscle
# Protocol: as §1, §2
# [3] = Study 2: Atlantic salmon 90-day feeding trial, final body weight, FCR and PER; conditions: Atlantic salmon, 100, 200 or 400 μg/kg 25-OH-D3 in feed, 90 days, relative to control
# Protocol: (§3) The second study evaluated dietary 25-hydroxyvitamin D3 (25-OH D3) compared to control basal diet fed fish.
# (§4) Fish with a mean starting weight of 23.4 g were fed diets based on the same standard composition representative of typical commercial salmonid feeds. Test diets contained no supplemented 25-OH-D3 or either 100, 200 or 400 μg/kg supplemented 25-OH-D3 (as fed basis). Hy·D (25-OH-D3) was supplemented on top of diets already containing cholecalciferol (D3) from both endogenous and supplemented sources. The measured levels of D3 in all experimental diets were in excess of established minimum dietary requirements for D3, (National Research Council (NRC), Nutrient Requirements of Fish and Shrimp. 2011, Washington, DC: The National Academies Press. 392.). In addition, the dietary level of D3 in all experimental diets met recommendations for optimal vitamin D3 in salmonid diets (Fish Nutrition. Fourth Edition 2021. Edited by Ronald W. Hardy and Sadasivam J. Kaushik. Academic Press, UK. 905 pp.), which stipulates a vitamin D3 supplementation of 2500-3500 international units (IU)/62.5-87.5 μg/kg). Diets were fed for 90 days with test fish reaching a mean final weight of 73.0 g. Twenty fish were housed in each tank and each treatment consisted of five replicate tanks.
# [4] = Study 2: Atlantic salmon 90-day feeding trial, viscerosomatic index, carcass yield and visceral fat; conditions: Atlantic salmon, 100, 200 or 400 μg/kg 25-OH-D3 in feed, 90 days, relative to control
# Protocol: as §3, §4
# [5] = Rainbow trout 20-week feeding from first-feeding, feed efficiency and whole body composition; conditions: 80 μg/Kg 25-OH-D3 plus D3, 20 weeks
# Protocol: The first study evaluated standard dietary levels of supplemented vitamin D3 alone or in combination with 80 μg/Kg 25-hydroxy vitamin D3dietary 25-hydroxyvitamin D3 (25-OH D3) in rainbow trout fed for 20 weeks from first-feeding.
# Two commercial-like experimental diets were formulated by DSM Nutritional Products France and produced by SPAROS (Portugal). The basal diet was supplemented with either vitamin D3 only (VitD3 diet) or D3 in combination with 80 μg/Kg 25-hydroxy vitamin D3 (25-OH-D3 diet) (Table 1).
# The parameters for growth performance, including feed efficiency (FE), were measured every 3 weeks and calculated as follow: Feed efficiency (FE)=(the mass for dead fish+final wet body mass-initial wet body mass)/dry feed intake. […].
# Data are presented as means±standard deviation (SD). For growth parameters, the plasma and the qPCR results, data were analyzed by t-Student comparison of two means. Normality was assessed using the Shaprio-Wilk test, while homoscedasticity was determined using Levene's test. Data was analysed using the statistical R software/R Commander package. For all statistical analyses, the level of significance was set at P<0.05. […] Differentially expressed genes (DEG) are determined and hierarchical clustering is illustrated by a heatmap. […]
# [6] = rainbow trout, 80, 800 or 8000 μg/kg in standard trout feed
structure (smiles),measurement,setting,value
"C=C1CC[C@H](O)C/C1=C/C=C1\CCC[C@]2(C)[C@@H]([C@H](C)CCCC(C)(C)O)CC[C@@H]12 [25-OH-D3, 25-hydroxyvitamin D3]",specific growth rate (SGR) relative to the control,[1]; apparent from 31 days onwards,rapidly improved; also recorded: increased growth rate relative to the control
same,feed conversion ratio (FCR) relative to the control,[1]; from 15 days onwards,rapidly improved
same,"plasma levels of 1,25-OH-D3 (active D3 metabolite)","[2]; rainbow trout, 80, 800 or 8000 μg/kg dietary 25-OH-D3 from Hy·D, D3-replete diets",increased plasma levels
same,blood plasma 25-OH-D3 in response to increasing dietary 25-OH-D3,[2]; [6],increase in a linear relationship
same,muscle 25-OH-D3 in response to increasing dietary 25-OH-D3,[2]; [6],increase in a linear relationship
same,bioavailability to fish,"[2]; rainbow trout, from changes in plasma and muscle vitamin D3 metabolites",highly bioavailable
same,feed conversion (FCR),[3],improved
same,final body weight,[3],improved; also recorded: increased growth
same,protein efficiency ratio (PER),[3],improved
same,carcass yield (percentage carcass),[4],improved carcass yields; also recorded: increased
same,percentage fat in the viscera,[4],reduced percentage fat being deposited in the viscera
same,viscerosomatic index (VSI),[4],reduced VSI; also recorded: decreased VSI
same,feed efficiency (FE),"[5]; rainbow trout fry, vs 1.19 for comparison diet, p=0.0002",1.29
same,whole body protein,"[5]; rainbow trout, 47.38 vs. 51.15, p=0.006",51.15
